Experimental data as given in patent publication US3978129A, “Alkenyl- and alkanylamines” (A. H. Robins Company, Incorporated, priority 1972, dated 1976).
Counter-ions that a name gives are not always drawn.

test system: depressant effects of tetrabenazine; assay: Blocking the depressant effects induced in mice by intravenous tetrabenazine (modified Englehardt procedure, increased tetrabenazine dosage); assay type: in vivo; settings: Mus musculus, ip, compounds I.P.
Method: The compounds were administered to mice intraperitoneally and the effectiveness of the compounds in blocking the depressant effects which are induced in mice by intravenous administration of 2-oxo-3-isobutyl-9,10-di-methoxy-1,2,3,4,6,7-hexahydro-11-bh-benzo[a]quinolizine (tetrabenazine was determined. The procedure used was a modification of that given by Englehardt, E. L. et al, J. Med. Chem. 11 (2) : 325(1968) wherein tetrabenazine dosage is increased over the Englehardt procedure. The ED50 of the compounds tested in blocking the depressant activity of tetrabenazine are given in Table I.

**Q.** With `COc1ccc(C(=CCCCl)CCN(C)C)cc1` [Example 6, 6-Chloro-N,N-dimethyl-3-(4-methoxyphenyl)-3-hexenylamine Hydrochloride] as the compound, how does the ED50 read?
**A.** 28.5 mg/kg

**Q.** How did the ED50 turn out when `CN(C)CCC(CCCCl)c1ccccc1` (centres unmarked) [Example 8, 6-Chloro-N,N-dimethyl-3-phenylhexylamine Hydrochloride] was run?
**A.** 3.6 mg/kg

**Q.** For `CN(C)CC=C(CCCBr)c1ccccc1` [Example 2, 6-Bromo-N,N-dimethyl-3-phenyl-2-hexenylamine Hydrobromide], which ED50 is on record?
**A.** 0.5 mg/kg

**Q.** With `CN(C)CCC(=CCCCl)c1ccccc1` [Example 1, 6-Chloro-N,N-dimethyl-3-phenyl-3-hexenylamine Hydrochloride] as the compound, how does the ED50 read?
**A.** 2.5 mg/kg

**Q.** For `CN(C)CCC=C(CCCCl)c1ccccc1` [Example 5, 7-Chloro-N,N-dimethyl-4-phenyl-3-heptenylamine Oxalate], which ED50 is on record?
**A.** 10 mg/kg

**Q.** `CN(C)CCCC(=CCCCl)c1ccccc1` [Example 4, 7-Chloro-N,N-dimethyl-4-phenyl-4-heptenylamine Oxalate] was tested. Which ED50 did it give?
**A.** 20 mg/kg

**Q.** `CN(C)CCC(=CCCBr)c1ccccc1` [Example 3, 6-Bromo-N,N-dimethyl-N,N-dimethyl-3-hexenylamine Hydrobromide] was tested. Which ED50 did it give?
**A.** 1.9 mg/kg

**Q.** How did the ED50 turn out when `CN(C)CCC(=CCCCl)c1cccc(C(F)(F)F)c1` [Example 7, 6-Chloro-N,N-dimethyl-3-(3-trifluoromethylphenyl)-3-hexenylamine Oxalate] was run?
**A.** 15.5 mg/kg
